According to patent US20130338142A1, “IMIDAZOPYRAZINE SYK INHIBITORS” (Gilead Connecticut, Inc., priority 2012, published 2013):
Values after ≈ are worked out from the molar mass of the structure shown.

Experiments:
Syk = Syk (Homo sapiens, UniProt P43405); experiment: High throughput Syk assay (TR-FRET, KinEASE); format: biochemical; conditions: Syk TR-FRET assay of Example B2; 3 μM ATP, 0.5 nM Syk
Protocol: The following high throughput Syk assay was performed on the compounds of Table 1 as follows.
Syk activity was measured by detecting phosphorylated peptide substrate formation using antibody against phosphorylated peptide substrate. This is a time-resolved fluorescence resonance energy transfer (TR-FRET) immunoassay, based on the KinEASE Assay (Cisbio). […] Test compounds (in DMSO) were spotted into 384 well plates using a Labcyte® Echo 550 Liquid Handling System prior to addition of Syk enzyme and peptide substrate. Reaction solutions were delivered using a Multi-Flo (Bio-Tek Instruments). The enzyme and peptide solution was incubated with compound for 60 minutes at room temp before the reaction was initiated by the addition of ATP. […] The europium donor was excited using a 340-nm excitation filter with a 30-nm band pass. Energy transfer to the tracer was measured using a filter centered at 665 nm with a 10 nm bandpass. This signal was then referenced to the emission from europium peak, using a 615 nm, 10-nm bandpass filter. The “emission ratio” was calculated as the 665 nm signal divided by the 615 nm signal. Percentage of inhibition was calculated as below:
% Inhibition=100×(RatioSample−Ratio0% Inhibition)/(Ratio100% Inhibition−Ratio0% Inhibition)

Kinetic solubility study = conditions: 37 °C, kinetic from dmso stock
Protocol: The compounds tested (as listed in Table 2 below) were dissolved in dimethyl sulfoxide (DMSO) at a 10 mM concentration. A 3 μL sample aliquot of the DMSO solution is then added to 297 μL of desired aqueous media (pH 2, pH 5.4, and pH 7.4). The sample is then incubated for 24 hrs at 37° C. with shaking. After 24 hrs the samples are centrifuged, an aliquot of the supernatant liquid is removed and analyzed by HPLC. The compound concentration in the sample is determined by reference to a sample of the compound with known standard concentration.

[1] = aqueous media, pH 2, aqueous buffer
[2] = aqueous media, pH 5.4, aqueous buffer
[3] = aqueous media, pH 7.4, aqueous buffer

SMILES: COc1cc(Nc2nc(-c3cnc4c(c3)NCCO4)cn3ccnc23)ccc1N1CCOCC1 [Compound 1, 6-(2,3-dihydro-1H-pyrido[2,3-b][1,4]oxazin-7-yl)-N-(3-methoxy-4-morpholinophenyl)imidazo[1,2-a]pyrazin-8-amine]
- IC50 (Syk): 3 nM
- solubility at 24 h (Kinetic solubility study; [1]): 98 µM (≈ 45 µg/mL)
- solubility at 24 h (Kinetic solubility study; [2]): 95 µM (≈ 43.7 µg/mL)
- solubility at 24 h (Kinetic solubility study; [3]): 95 µM (≈ 43.7 µg/mL)

SMILES: COc1cc(Nc2nc(-c3ccc4c(c3)CNCCO4)cn3ccnc23)ccc1N1CCOCC1 [Compound 3]
- IC50 (Syk): 7 nM
- solubility at 24 h (Kinetic solubility study; [1]): 100 µM (≈ 47.3 µg/mL)
- solubility at 24 h (Kinetic solubility study; [2]): 100 µM (≈ 47.3 µg/mL)
- solubility at 24 h (Kinetic solubility study; [3]): 100 µM (≈ 47.3 µg/mL)

SMILES: COc1cc(Nc2nc(-c3ccc4c(c3)NCCO4)cn3ccnc23)ccc1N1CCN(C2COC2)CC1 [Compound 4, 6-(3,4-dihydro-2H-benzo[b][1,4]oxazin-6-yl)-N-(3-methoxy-4-(4-(oxetan-3-yl)piperazin-1-yl)phenyl)imidazo[1,2-a]pyrazin-8-amine]
- IC50 (Syk): 4 nM
- solubility at 24 h (Kinetic solubility study; [1]): 94 µM (≈ 48.3 µg/mL)
- solubility at 24 h (Kinetic solubility study; [2]): 94 µM (≈ 48.3 µg/mL)
- solubility at 24 h (Kinetic solubility study; [3]): 57 µM (≈ 29.3 µg/mL)

SMILES: COc1cc(Nc2nc(-c3ccc4c(c3)NCCO4)cn3ccnc23)ccc1N1CCOCC1 [Compound 14x, 6-(3,4-dihydro-2H-benzo[b][1,4]oxazin-6-yl)-N-(3-methoxy-4-moipholinophenyl)imidazo[1,2-a]pyrazin-8-amine, reference compound]
- solubility at 24 h (Kinetic solubility study; [1]): 87 µM (≈ 39.9 µg/mL)
- solubility at 24 h (Kinetic solubility study; [2]): 10 µM (≈ 4.59 µg/mL)
- solubility at 24 h (Kinetic solubility study; [3]): 8 µM (≈ 3.67 µg/mL)

SMILES: c1cn2cc(-c3ccc4c(c3)NCCO4)nc(Nc3ccc(N4CCN(C5COC5)CC4)cc3)c2n1 [Compound 24, 6-(3,4-dihydro-2H-benzo[b][1,4]oxazin-6-yl)-N-(4-(4-(oxetan-3-yl)piperazin-1-yl)phenyl)imidazo[1,2-a]pyrazin-8-amine]
- solubility at 24 h (Kinetic solubility study; [1]): 100 µM (≈ 48.4 µg/mL)
- solubility at 24 h (Kinetic solubility study; [2]): 61 µM (≈ 29.5 µg/mL)
- solubility at 24 h (Kinetic solubility study; [3]): 33 µM (≈ 16 µg/mL)

SMILES: c1cn2cc(-c3cnc4c(c3)NCCO4)nc(Nc3ccc(N4CCOCC4)cc3)c2n1 [Compound 28x, 6-(2,3-dihydro-1H-pyrido[2,3-b][1,4]oxazin-7-yl)-N-(4-morpholinophenyl)imidazo[1,2-a]pyrazin-8-amine, reference compound]
- solubility at 24 h (Kinetic solubility study; [1]): 90 µM (≈ 38.7 µg/mL)
- solubility at 24 h (Kinetic solubility study; [2]): 9 µM (≈ 3.87 µg/mL)
- solubility at 24 h (Kinetic solubility study; [3]): 9 µM (≈ 3.87 µg/mL)

SMILES: COc1cc(Nc2nc(-c3ccc4cn[nH]c4c3)cn3ccnc23)ccc1N1CCOCC1 [Compound 90x, 6-(1H-indazol-6-yl)-N-(3-methoxy-4-morpholinophenyl)imidazo[1,2-a]pyrazin-8-amine, reference compound]
- solubility at 24 h (Kinetic solubility study; pH 2, aqueous buffer): 94 µM (≈ 41.5 µg/mL)
- solubility at 24 h (Kinetic solubility study; pH 5.4, aqueous buffer): 3 µM (≈ 1.32 µg/mL)
- solubility at 24 h (Kinetic solubility study; pH 7.4, aqueous buffer): 3 µM (≈ 1.32 µg/mL)

SMILES: COc1cc(Nc2nc(-c3cnc4c(c3)NCCO4)cn3ccnc23)ccc1N1CCC2(CC1)OCCO2 [Compound 103, 6-(2,3-dihydro-1H-pyrido[2,3-b][1,4]oxazin-7-yl)-N-(3-methoxy-4-(1,4-dioxa-8-azaspiro[4.5]decan-8-yl)phenyl)imidazo[1,2-a]pyrazin-8-amine]
- IC50 (Syk): 3 nM

SMILES: COc1cc(Nc2nc(-c3cnc4c(c3)NCCO4)cn3ccnc23)ccc1N1CCC(=O)CC1 [Compound 104, 1-(4-((6-(2,3-dihydro-1H-pyrido[2,3-b][1,4]oxazin-7-yl)imidazo[1,2-a]pyrazin-8-yl)amino)-2-methoxyphenyl)piperidin-4-one]
- IC50 (Syk): 4 nM

SMILES: COc1cc(Nc2nc(-c3cnc4c(c3)NCCO4)cn3ccnc23)ccc1N1CCC(=NO)CC1 [Compound 105, 1-(4-((6-(2,3-dihydro-1H-pyrido[2,3-b][1,4]oxazin-7-yl)imidazo[1,2-a]pyrazin-8-yl)amino)-2-methoxyphenyl)piperidin-4-one oxime]
- IC50 (Syk): 5 nM

SMILES: CON=C1CCN(c2ccc(Nc3nc(-c4cnc5c(c4)NCCO5)cn4ccnc34)cc2OC)CC1 [Compound 106, 1-(4-((6-(2,3-dihydro-1H-pyrido[2,3-b][1,4]oxazin-7-yl)imidazo[1,2-a]pyrazin-8-yl)amino)-2-methoxyphenyl)piperidin-4-one O-methyl oxime]
- IC50 (Syk): 6 nM

SMILES: CO/N=C(\C)c1ccc(Nc2nc(-c3cnc4c(c3)NCCO4)cn3ccnc23)cc1 [Compound 107, (E)-1-(4-((6-(2,3-dihydro-1H-pyrido[2,3-b][1,4]oxazin-7-yl)imidazo[1,2-a]pyrazin-8-yl)amino)phenyl)ethanone O-methyl oxime]
- IC50 (Syk): 17 nM

SMILES: CO/N=C(/C)c1ccc(Nc2nc(-c3cnc4c(c3)NCCO4)cn3ccnc23)cc1 [Compound 108, (Z)-1-(4-((6-(2,3-dihydro-1H-pyrido[2,3-b][1,4]oxazin-7-yl)imidazo[1,2-a]pyrazin-8-yl)amino)phenyl)ethanone O-methyl oxime]
- IC50 (Syk): 7 nM

SMILES: COc1cc(Nc2nc(-c3cnc4c(c3)NCCO4)cn3ccnc23)ccc1N1CCOCC1 [Example 5a, 6-(2,3-dihydro-1H-pyrido[2,3-b][1,4]oxazin-7-yl)-N-(3-methoxy-4-morpholinophenyl)imidazo[1,2-a]pyrazin-8-amine]
- melting point: 233 to 234 °C

SMILES: c1cn2cc(-c3ccc4c(c3)NCCO4)nc(Nc3ccc(N4CCN(C5COC5)CC4)cc3)c2n1 [Example 24, 6-(3,4-dihydro-2H-benzo[b][1,4]oxazin-6-yl)-N-(4-(4-(oxetan-3-yl)piperazin-1-yl)phenyl)imidazo[1,2-a]pyrazin-8-amine]
- IC50 (Syk): 11 nM
